Reference: PubChem BioAssay (NCI)
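Where inhibition never reached the appropriate level, the endpoint shown equals the highest concentration tested. Otherwise, values were interpolated linearly from a five-concentration, 48-hour dose response in 96-well plates. Abbreviation: GI50, concentration required for 50% inhibition of growth. TGI: total growth inhibition.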

Tests used:
Test in all cases: DTP human tumour cell line panel, 48 h
MDA-MB-435 = system: MDA-MB-435
NCI-H226 lung = system: NCI-H226 lung
OVCAR-3 ovarian = system: OVCAR-3 ovarian
OVCAR-4 ovarian = system: OVCAR-4 ovarian
SF-539 CNS = system: SF-539 CNS
SK-MEL-2 melanoma = system: SK-MEL-2 melanoma
SNB-75 CNS = system: SNB-75 CNS
UACC-62 melanoma = system: UACC-62 melanoma
UO-31 renal = system: UO-31 renal
SR leukemia = system: SR leukemia

Compound	GI50 (MDA-MB-435) [µM]	TGI (MDA-MB-435) [µM]	GI50 (NCI-H226 lung) [µM]	TGI (NCI-H226 lung) [µM]	GI50 (OVCAR-3 ovarian) [µM]	TGI (OVCAR-3 ovarian) [µM]	GI50 (OVCAR-4 ovarian) [µM]	TGI (OVCAR-4 ovarian) [µM]	GI50 (SF-539 CNS) [µM]	TGI (SF-539 CNS) [µM]	GI50 (SK-MEL-2 melanoma) [µM]	TGI (SK-MEL-2 melanoma) [µM]	GI50 (SNB-75 CNS) [µM]	TGI (SNB-75 CNS) [µM]	GI50 (UACC-62 melanoma) [µM]	TGI (UACC-62 melanoma) [µM]	GI50 (UO-31 renal) [µM]	TGI (UO-31 renal) [µM]	TGI (SR leukemia) [µM]	GI50 (SR leukemia) [µM]
CN1c2ccccc2C(C)(C)C12C=Cc1cc(O)ccc1O2 (stereo unspecified)	2.1	4.49	13.3	28.8	2.16	5.23	4.73	17.6	1.94	4.15	3.05	11.5	2.47	8.4	2.56	11.5	4.02	19.5		
COCCCNC(=O)CC(=O)NCCCOC						> 100		> 100		> 100		> 100				> 100		> 100	> 100	
COc1ccc(Nc2c3ccccc3nc3ccccc23)cc1			1.2	3.84	1.43	5.78	2.06	15	2.95	14.6	1.29	11.3	2.85	17.6			1.21	5.27	4.01	0.482
O=C(NP(=O)(N1CC1)N1CC1)c1cc(I)ccc1I		> 100		> 100		86.6		> 100		71.7		> 100		79.1		57.6		> 100		
O=C(Cc1nc2ccccc2s1)Nc1cccc(C(F)(F)F)c1				44.7		31.8		30.3		33.4		33.8		26.8		25.4		27.6		
COC(=O)CCC(=O)CC(=O)C(=O)Nc1c(Cl)cc([N+](=O)[O-])cc1Cl				> 100		> 100		> 100		> 100		> 100		> 100		> 100		> 100	61.7	
CS(=O)(=O)N(N(CCCl)S(=O)(=O)c1ccccc1)S(C)(=O)=O				> 100		> 100		> 100		> 100		> 100		> 100		> 100		> 100	> 100	
CN(C)CCNC(=O)c1cccc2c1nc(-c1ccccc1)c1ccccc12				12.5		20.7		17.7		8.02		23.6		19.9		24.4		6.17		
C=C1CC/C=C(\C)C(=O)C[C@@H]2[C@@H]1CC2(C)C		5.18		42.8		20.7		6.48		8.46		43.8		26.3		24.2		7.64		
O=CC[C@H]1CCc2ccccc2C12CCC(=O)CC2				> 100		> 100		> 100		> 100		> 100		> 100		> 100		> 100		
COc1cc2c3c(c1OC)-c1c(ccc4c1OCO4)CC3(C#N)N(C(=O)c1ccccc1)CC2 (stereo unspecified)				> 100		> 100		59		> 100				49.4		> 100		> 100	> 100	
CC1(C)Cc2cc(C(=O)O)c3c(c2C1=O)COCC3				> 100		> 100		> 100		> 100		> 100		> 100		> 100		> 100	> 100	
O=C(Nc1nc2ncn(CCNCc3ccccc3)c2c(=O)[nH]1)c1ccccc1				> 100		> 100		> 100		> 100		> 100		> 100		> 100		> 100	> 100	
COc1cc(OC)c(/C=C/c2cnc3ccccc3n2)c(OC)c1		> 10		> 10		> 10		> 10		> 10		> 10		> 10		> 10		1.56		
CCOC(=O)C1=C(C)N(c2ccc(C)cc2)C2=C(C(=O)N(c3ccccc3)C2c2ccccc2)C1c1ccccc1 (stereo unspecified)				> 25		> 25		> 25		> 25		> 25		> 25		> 25		> 25	> 25	
O=C(O)/C(=C/C=C/c1ccccc1)c1csc(-c2nc(/C(=C\C=C\c3ccccc3)C(=O)O)cs2)n1						57.5				51.2		43.6		98.7		98.1		59.6		
COc1ccc(/C(C#N)=C/c2ccc(OC)c(OC)c2)cc1		> 100		> 100		> 100		> 100		> 100		> 100		> 100		> 100		> 100		
COc1ccc(/C=c2\sc3n(c2=O)C(N)=C(C#N)C(c2ccc(OC)cc2)C=3c2nc3ccccc3[nH]2)cc1 (stereo unspecified)				49.2		44.3		> 100				61.5		> 100		> 100		> 100	> 100	
CCCCCCCCCc1cccc(N2C(N)=NC(N)=NC2(C)C)c1		1.83		61.2		0.193		4.39		2.1		4.65		25.9		4.07		> 42.4		
CC(C)(C)c1cc2c3c(c1)C(C(F)(F)F)(C(F)(F)F)O[Te]3(C)OC2(C(F)(F)F)C(F)(F)F				> 100		> 100		> 100		> 100		> 100				> 100		> 100	> 100	
CCCCS(=O)(=O)CCC(N)C(=O)O (stereo unspecified)				> 100		> 100		> 100		> 100		> 100		> 100		> 100		> 100	> 100	

Compound	GI50 (MDA-MB-435) [µM]	TGI (MDA-MB-435) [µM]	GI50 (NCI-H226 lung) [µM]	TGI (NCI-H226 lung) [µM]	GI50 (OVCAR-3 ovarian) [µM]	TGI (OVCAR-3 ovarian) [µM]	GI50 (OVCAR-4 ovarian) [µM]	TGI (OVCAR-4 ovarian) [µM]	GI50 (SF-539 CNS) [µM]	TGI (SF-539 CNS) [µM]	GI50 (SK-MEL-2 melanoma) [µM]	TGI (SK-MEL-2 melanoma) [µM]	GI50 (SNB-75 CNS) [µM]	TGI (SNB-75 CNS) [µM]	GI50 (UACC-62 melanoma) [µM]	TGI (UACC-62 melanoma) [µM]	GI50 (UO-31 renal) [µM]	TGI (UO-31 renal) [µM]	TGI (SR leukemia) [µM]	GI50 (SR leukemia) [µM]
CC(=O)c1ccc(NC(=O)C(=O)Nn2c(=S)[nH]c3ccccc3c2=O)cc1				> 100		> 100		> 100		> 100		> 100		> 100		> 100		> 100	> 100	
O=[N+]([O-])c1cccc(C2ON2C2CCCCC2)c1 (stereo unspecified)						34.6		38.3		46.3		62.8		> 100		48		49.7	7.81	
O=C(CCC(=O)C(C(=O)c1ccccc1)c1ccccc1)Nc1cccc(C(F)(F)F)c1 (stereo unspecified)				> 100		> 100		> 100		> 100		> 100				> 100		> 100		
O=[N+]([O-])c1cccc(-c2oc(C=Nc3ccccc3)c([N+](=O)[O-])c2-c2cccc([N+](=O)[O-])c2)c1				> 100		> 100				> 100		> 100		> 100		> 100		> 100		
CCc1cccc(C(C)C)c1N1C(=O)C(=O)C(c2nc3ccccc3s2)C(=O)C1=O						> 43.1		> 50		> 50		> 50		> 50		> 50		> 50		
Cc1cc(N(CCNc2ccnc3cc(Cl)ccc23)Cc2ccco2)nc(Cl)n1	1.72	3.37			1.61	3.01	1.49	2.95	1.82	3.32	1.9	3.83	1.47	2.97	1.78	3.38	1.49	2.89		
CN(C)c1ccc(Nc2cc(-c3cccc(OC(F)(F)F)c3)nc3ccc(N4CCCC4)cc23)cc1	1.82	3.37	3.49	15.4	1.74	3.14	1.98	3.77	1.77	3.36	12.4	26.5	1.64	3.12	1.8	3.29	1.77	3.17		
COc1cc(OC)c(C2CC=Cc3c(OC)cc(OC)c(OC)c32)cc1OC (stereo unspecified)				> 100		> 100		> 100		> 100		> 100		> 100		> 100		> 100	> 100	
CCNC(=O)c1cc2c(-c3cc(C(C)(C)O)ccc3Oc3c(C)cc(F)cc3C)cn(C)c(=O)c2[nH]1	1.41	14.3	2.64	14.9	1.93	11.9	1.84	16.6	1.92	13.2	2.92	15	0.108	12.8	0.17	9.42	0.1	10.9		
CCCCCCCCCCCCCP(=O)(O)OCC				> 100		> 100		> 100		> 100		> 100		> 100		> 100		> 100		
O=C1c2ccccc2C(=O)c2c1ccc(C1C(=O)c3ccccc3C1=O)c2-c1c(C2C(=O)c3ccccc3C2=O)ccc2c1C(=O)c1ccccc1C2=O		> 100		> 100		> 100		> 100		> 100		> 100		> 100		> 100		> 100		
Cc1cc(C)nc(NS(=O)(=O)c2ccc(Nc3c4ccc(Cl)cc4nc4c(C(=O)Nc5ccc(S(N)(=O)=O)cc5)cccc34)cc2)n1						30.2		55.5		37.9				> 100		76.6		39.2	51.5	
COc1cc2c3c(n(CCCI)c(=O)c2cc1OC)-c1cc2c(cc1C3=O)OCO2	6.06	> 100	2.05	7.88	11.2	> 100	17.2	> 100	4.04	> 100	> 100	> 100	> 100	> 100	0.202	1.91	2.53	> 100		
N#Cc1c(N)nc(N2CCOCC2)c(C#N)c1-c1cccnc1	> 100	> 100	81.8	> 100	26.6	89.7	44.4	> 100	> 100	> 100	> 100	> 100	11.1	43.6	43.4	> 100	24.1	> 100		
Clc1ccc(C2SCc3nc4ccccc4n32)cc1Cl (stereo unspecified)				41.3		22.5		25.8		32.3		35.5		14.3		27.1			55.1	
C=C1CCC2C(C)(C)CCC[C@]2(C)[C@H]1CO (stereo partly specified)	43.2	> 100	94.5	> 100	> 100	> 100					> 100	> 100			> 100	> 100	> 100	> 100		
O=C(Cn1ccnc1[N+](=O)[O-])c1ccc(F)cc1				> 100		> 100		> 100		> 100		> 100		> 100		> 100		> 100		
Fc1ccccc1C1CC(c2ccc3ccccc3c2)=Nc2ccccc2S1 (stereo unspecified)				> 100		> 100		> 100		> 100		> 100				> 100		> 100	> 100	
CCC(=O)c1c(NOC2OC(COC(C)=O)C(OC(C)=O)C(OC(C)=O)C2OC(C)=O)nc(OC)n(C)c1=O (stereo unspecified)				> 100				> 100		> 100		> 100		> 100		> 100			> 100	
Cc1ccc(S(=O)(=O)OCC23CCC(CC2)C2CC23)cc1 (stereo unspecified)				> 100		> 100		> 100						40.6		> 100		> 100	> 100	
O=C(CC1(O)C(=O)Nc2c(Cl)cc(Cl)cc21)c1cccc2ccccc12 (stereo unspecified)				31.1		30		25.4		32.4		32.6		33.1		28.9			38.5	
